Source: PMC12530851, “Design, synthesis, and apoptotic antiproliferative activity of novel dihydropyrimidine-5-carbonitrile/1,2,4-oxadiazole hybrids as dual EGFR/VEGFR-2 inhibitors endowed with antioxidant activity” (RSC Advances, 2025)

Key:
A-549 (lung cancer) = experiment: Antiproliferative assay, A-549; type: cell-based; details: Homo sapiens, A549; A-549 lung cancer cells; read-out: Antiproliferative activity IC50 ± SEM, A-549
Text: (§1) The dose–response experiments established the IC50 values for the new compounds. The given findings were obtained from at least two distinct studies, each comprising three repeats per concentration. Appendix A (SI File) provides experimental details.[38,39]
(§2) The MTT assay[43] was utilized to assess the antiproliferative effects of compounds 10a–l on four human cancer cell lines: HT-29 (colon cancer), Panc-1 (pancreatic cancer), A-549 (lung cancer), and MCF-7 (breast cancer). […]
(§3) 4.2.2. Assay for antiproliferative effect
(§4) To explore the antiproliferative potential of compounds propidium iodide fluorescence assay was performed using different cell lines such as Panc-1 (pancreas cancer cell line), MCF-7 (breast cancer cell line), HT-29 (colon cancer cell line) and A-549 (epithelial cancer cell line), respectively. To calculate the total nuclear DNA, a fluorescent dye (propidium iodide, PI) is used which can attach to the DNA, thus offering a quick and precise technique. PI cannot pass through the cell membrane and its signal intensity can be considered as directly proportional to quantity of cellular DNA. Cells whose cell membranes are damaged or have changed permeability are counted as dead ones. The assay was performed by seeding the cells of different cell lines at a density of 3000-7500 cells/well (in 200μl medium) in culture plates followed by incubation for 24h at 37 °C in humidified 5%CO2/95% air atmospheric conditions. The medium was removed; the compounds were added to the plates at 10 μM concentrations (in 0.1% DMSO) in triplicates, followed by incubation for 48h. DMSO (0.1%) was used as control. After incubation, medium was removed followed by the addition of PI (25 μl, 50μg/mL in water/medium) to each well of the plates. At - 80 °C, the plates were allowed to freeze for 24 h, followed by thawing at 25 °C. A fluorometer (Polar-Star BMG Tech) was used to record the readings at excitation and emission wavelengths of 530 and 620 nm for each well. The percentage cytotoxicity of compounds was calculated using […]
(§5) Where ATC= Absorbance of treated cells and AC= Absorbance of control. Erlotinib was used as positive control in the assay. […]

[1] = system: Panc-1 (pancreatic cancer); experiment: Antiproliferative assay, Panc-1; type: cell-based; details: Homo sapiens; Panc-1 pancreatic cancer cells; read-out: Antiproliferative activity IC50 ± SEM, Panc-1
Text: as §1, §2, §3, §4, §5

Bcl-2 = Bcl-2 level assay in MCF-7 cells; type: cell-based, human; details: for Bcl-2 Fold reduction: vs untreated control
Protocol: Compounds10k and 10l were tested as caspases-3, 8, 9, Bax and p53 activators and as down-regulators of the anti-apoptotic protein Bcl2 against the MCF-7 breast cancer cell line.[41] Appendix A gives more details.
The Bcl-2 protein family, which includes pro-apoptotic proteins (Bax) and anti-apoptotic proteins (Bcl-2), primarily regulates apoptosis.[46] […] Consequently, we assessed the expression levels of Bcl-2 and Bax proteins in MCF-7 breast cancer cells treated with compounds 10k and 10l, Table 6. […]
4.2.8. Bcl-2 inhibition assay
Mix all the reagents thoroughly without foaming before use. Wash the microwells twice with approximately 300 μL Wash Buffer per well with thorough aspiration of microwell contents between washes. Take caution not to scratch the surface of the microwells. After the last wash, empty the wells and tap microwell strips on absorbent pad or paper towel to remove excess Wash Buffer. Use the microwell strips immediately after washing or place upside down on a wet absorbent paper for not longer than 15 minutes. […] Add 100 μL of Sample […]
Diluent in duplicate to all standard wells and to the blank wells. Prepare standard (1:2 dilution) in duplicate ranging from 32 ng/mL to 0.5 ng/mL. Add 100 μL of Sample Diluent, in duplicate, to the blank wells. Add 80 μL of Sample Diluent, in duplicate, to the sample wells. Add 20 μL of each Sample, in duplicate, to the designated wells. Add 50 μL of diluted biotin-conjugate to all wells, including the blank wells. Cover with a plate cover and incubate at room temperature, on a microplate shaker at 100 rpm if available, for 2 hours. Remove plate cover and empty the wells.
Wash microwell strips 3 times as described in step 2. Add 100 μL of diluted Streptavidin-HRP to all wells, including the blank wells. Cover with a plate cover and incubate at room temperature, on a microplate shaker at 100 rpm if available, for 1 hour. Remove the plate cover and empty the wells. Wash microwell strips 3 times as described in step 2. Proceed to the next step. Pipette 100 μl of mixed TMB Substrate Solution to all wells, including the blanks. […] The point, at which the substrate reaction is stopped, is often determined by the ELISA reader. Many ELISA readers record absorbance only up to 2.0
O.D. Therefore, the color development within individual microwells must be watched by the person running the assay and the substrate reaction stopped before positive wells are no longer properly detectable. […] Results must be read immediately after the Stop Solution is added or within one hour if the microwell strips are stored at 2 - 8°C in the dark. Read the absorbance of each microwell on a spectrophotometer using 450 nm as the primary wavelength.

COc1ccc(-c2nc(SCc3nc(-c4ccc(Cl)cc4)no3)[nH]c(=O)c2C#N)cc1 [Compound 10k, 2-(((3-(4-Chlorophenyl)-1,2,4-oxadiazol-5-yl)methyl)thio)-4-(4-methoxyphenyl)-6-oxo-1,6-dihydropyrimidine-5-carbonitrile]
IC50 (A-549 (lung cancer)): 23 ± 1 nM | IC50 [1]: 22 ± 1 nM | Bcl-2 (Bcl-2): 1.20 ± 0.001 ng/mL | Bcl-2 Fold reduction (Bcl-2): 4 fold

COc1ccc(-c2noc(CSc3nc(-c4ccc(OC)cc4)c(C#N)c(=O)[nH]3)n2)cc1 [Compound 10l, 2-(((3-(4-Methoxyphenyl)-1,2,4-oxadiazol-5-yl)methyl)thio)-4-(4-methoxyphenyl)-6-oxo-1,6-dihydropyrimidine-5-carbonitrile]
IC50 (A-549 (lung cancer)): 28 ± 1 nM | IC50 [1]: 26 ± 1 nM | Bcl-2 (Bcl-2): 1.50 ± 0.001 ng/mL | Bcl-2 Fold reduction (Bcl-2): 3 fold
